Legend:
PC3 and DU145 cells [1] = assay: Invasion assay (Matrigel chambers); type: cell-based, human; settings: for PC3 and DU145 invasion: 10 μM, 4 h in situ
Experimental: (§1) Inhibitors were dissolved in DMSO and diluted into media or buffer prior to cell or proteome treatment, respectively. For in vitro treatment, final DMSO concentration was 4%. For in situ treatments of cells for ABPP, lipid measurements, migration, cell-survival, and invasion assays, 2×10^6 cells were seeded in 6 cm dishes (˜100% confluency) 24 h prior to inhibitor pre-treatment (in DMSO at 0.1% final concentration) in serum-free media (3 mL) for the designated time before harvesting cells for ABPP or lipid measurements or before the initiation of migration, cell-survival, and invasion assays.
(§2) Cell migration, cell survival, and invasion studies were performed as previously described (Nomura et al., 2010). Briefly, migration assays were performed in Transwell chambers (Corning) with 8 μm pore-sized membranes coated with 10 μg/mL collagen at 37° C. for LNCaP (24 h), PC3 (4 h) and DU145 cells (24 h), respectively. Cell survival assays were performed using the Cell Proliferation Reagent WST-1 (Roche) Invasion assays were conducted using the BD Matrigel Invasion Chambers per the manufacturer's protocol. Inhibitors were preincubated for the stated duration before seeding cells into migration, cell-survival, or invasion chambers. Prior to seeding the cells in these chambers, cells were serum-starved for 4 h. Inhibitors were also present during the migration, cell-survival, and invasion assays.

[2] = tested on: MAGE levels in PC3 and DU145 cells; assay: Lipid (MAGE) measurements in cancer cells; type: cell-based, human; settings: for MAGE levels: 10 μM, 4 h in situ
Experimental: as §1
Lipid measurements were performed in cancer cells as previously described (Chiang et al., 2006). Briefly, frozen cell pellets from cells harvested after 4 h serum starvation were extracted in 2:1:1 chloroform:methanol:Tris buffer pH 8.0 by dounce homogenization with 10 nmol of internal standard C12 MAGE. The organic layer was removed, dried under N2, and resuspended in 120 μL of chloroform, and 30 μL was injected into an Agilent 1100-MSD LC-MS. MAGE levels were quantified by measuring the area under the peak and were normalized to the C12 MAGE internal standard.

PC3 and DU145 cells [3] = assay: Cell migration assay (Transwell); type: cell-based, human; settings: for PC3 and DU145 migration: 10 μM, 4 h in situ
Experimental: as §1, §2

PC3 and DU145 cells [4] = assay: Serum-free cell survival assay (WST-1); type: cell-based, human; settings: for PC3 and DU145 serum-free cell survival: 10 μM, 4 h in situ
Experimental: as §1, §2

brain KIAA1363 = target: T1, brain KIAA1363 (Mus musculus, UniProt Q8BLF1); assay: Competitive ABPP of brain proteomes from inhibitor-treated mice; type: in vivo
T1 construct: ABPP analysis of KIAA1363 activity in mouse brain membrane proteome; from tissue; host or cells: mouse brain (membrane fraction)
T1 sequence (Q8BLF1 1-408): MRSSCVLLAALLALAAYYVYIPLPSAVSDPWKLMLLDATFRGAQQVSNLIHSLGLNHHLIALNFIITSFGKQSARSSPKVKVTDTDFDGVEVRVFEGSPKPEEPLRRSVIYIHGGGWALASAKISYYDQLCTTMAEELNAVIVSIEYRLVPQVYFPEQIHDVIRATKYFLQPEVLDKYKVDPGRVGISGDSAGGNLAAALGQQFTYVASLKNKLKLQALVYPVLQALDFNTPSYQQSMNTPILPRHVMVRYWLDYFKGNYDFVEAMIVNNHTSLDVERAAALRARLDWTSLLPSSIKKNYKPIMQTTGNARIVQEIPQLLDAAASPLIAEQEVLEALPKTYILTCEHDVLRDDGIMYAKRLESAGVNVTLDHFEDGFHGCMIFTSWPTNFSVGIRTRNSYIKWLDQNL
Experimental: Tissues were Dounce-homogenized in PBS, pH 7.4, followed by a low-speed spin (1,400 g, 5 min) to remove debris. The supernatant was then subjected to centrifugation (100,000×g, 45 min) to provide the cytosolic fraction in the supernatant and the unsoluble fraction as a pellet. The pellet was washed and resuspended in PBS buffer by sonication. Total protein concentration in each fraction was determined using a protein assay kit (Bio-Rad). Samples were stored at −80° C. until use.
For ABPP experiments, cell lysate and tissue proteomes were treated with 1 μM FP-rhodamine for 30 min at room temperature (50 μL total reaction volume) as described previously (Nomura et al., 2010). Reactions were quenched with one volume of standard 4×SDS/PAGE loading buffer (reducing), separated by SDS/PAGE (10% acrylamide), and visualized in-gel with a Hitachi FMBio IIe flatbed fluorescence scanner (MiraiBio). Inhibitors were preincubated prior (30 min or 4 h at 37° C. in vitro or in situ, respectively) to the addition of FP-rhodamine.
JW480 was administered by oral gavage (in PEG300, 4 μL/g mouse) or intraperitoneally (in 18:1:1 v/v/v solution of saline:ethanol:emulphor, 10 μL/g). After the indicated amount of time, mice were anesthetized with isoflurane and killed by decapitation. Tissues were removed and then flash frozen in liquid N2. Tissues were stored at −80° C. until use. Animal experiments were conducted in accordance with the guidelines of the institutional Animal Care and Use Committee of The Scripps Research Institute.

SMILES | PC3 and DU145 invasion (PC3 and DU145 cells [1]) | MAGE levels [2] | PC3 and DU145 migration (PC3 and DU145 cells [3]) | PC3 and DU145 serum-free cell survival (PC3 and DU145 cells [4]) | Invasion of PC3 cells (PC3 and DU145 cells [1]; 1 μM, 48 h in situ) | MAGE lipids ([2]; 1 μM, 48 hr) | Migration of PC3 cells (PC3 and DU145 cells [3]; 1 μM, 48 h in situ) | Selectivity for KIAA1363 in brain proteomes from treated mice (gel-based ABPP) (brain KIAA1363; 1-80 mg/kg, i.p. or oral, 4 hr) | Dose required to completely inactivate brain KIAA1363 in SCID mice (brain KIAA1363; immunedeficient SCID mouse strain, oral) [mg/kg] | Dose giving complete inhibition of brain KIAA1363, i.p. (brain KIAA1363; mice, i.p., 4 hr) [mg/kg] | Dose giving complete inhibition of brain KIAA1363, oral (brain KIAA1363; normal mice, oral, 4 hr) [mg/kg] | Duration of KIAA1363 inhibition in vivo (brain KIAA1363; single administration 20 mg/kg, oral) | Serum-free cell survival of PC3 cells (PC3 and DU145 cells [4]; 1 μM, 48 h in situ)
COc1ccc(CNC(=O)Oc2cccc3c2OC(C)(C)C3)cc1 [JW148, 2,2-dimethyl-2,3-dihydrobenzofuran-7-yl 4-methoxybenzylcarbamate] | impair | lower MAGE levels | impair | impair |  |  |  |  |  |  |  |  | 
CC(C)c1ccccc1OC(=O)NCCc1ccc2ccccc2c1 [JW480, 2-isopropylphenyl (2-(naphthalen-2-yl)ethyl)carbamate] | impair | lower MAGE levels | impair | impair | reduced | significant reductions | reduced | excellent selectivity | 80 | 5 | 20 | up to 24 hr | reduced

Reference: patent US9249128B2 (priority 2010, dated 2016)
